Laboratory results from BindingDB's records for PubMed 9223568 (Yamanouchi Pharmaceutical, 1997).
pKi: −log10 of the molar value. Several values for one entry are separate records, joined by “and”; a condition that tells them apart may be missing. Identical values can stand only once. Numbered stars: 1 amine (or outer) side, 2 acyl side, 3 side chain; on linkers, the order of the positions; unused ones are H or OH. Bridge positions count the residues as written; N and C are the ends. Peptide text beside a SMILES is read from it. X1 = O=C(CC1(S[*:2])CCCCC1)[*:1]

What was measured:
Vasopressin V1b receptor = molecular target: T1, Vasopressin V1b receptor (Rattus norvegicus, UniProt P48974)
T1 sequence (P48974 whole entry): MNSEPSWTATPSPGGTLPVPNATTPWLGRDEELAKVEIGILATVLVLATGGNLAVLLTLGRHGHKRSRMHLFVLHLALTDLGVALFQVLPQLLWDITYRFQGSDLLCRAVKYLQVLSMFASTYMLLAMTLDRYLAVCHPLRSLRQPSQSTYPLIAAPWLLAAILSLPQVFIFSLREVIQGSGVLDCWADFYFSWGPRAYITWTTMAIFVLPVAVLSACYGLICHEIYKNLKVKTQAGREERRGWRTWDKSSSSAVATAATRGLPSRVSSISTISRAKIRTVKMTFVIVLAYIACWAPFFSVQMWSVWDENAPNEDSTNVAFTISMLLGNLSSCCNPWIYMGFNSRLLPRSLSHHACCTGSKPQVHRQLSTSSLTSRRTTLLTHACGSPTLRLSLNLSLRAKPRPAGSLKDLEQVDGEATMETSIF

Vasopressin V1a receptor = Vasopressin V1a receptor (Rattus norvegicus, UniProt P30560)
Sequence of Vasopressin V1a receptor (P30560 whole entry): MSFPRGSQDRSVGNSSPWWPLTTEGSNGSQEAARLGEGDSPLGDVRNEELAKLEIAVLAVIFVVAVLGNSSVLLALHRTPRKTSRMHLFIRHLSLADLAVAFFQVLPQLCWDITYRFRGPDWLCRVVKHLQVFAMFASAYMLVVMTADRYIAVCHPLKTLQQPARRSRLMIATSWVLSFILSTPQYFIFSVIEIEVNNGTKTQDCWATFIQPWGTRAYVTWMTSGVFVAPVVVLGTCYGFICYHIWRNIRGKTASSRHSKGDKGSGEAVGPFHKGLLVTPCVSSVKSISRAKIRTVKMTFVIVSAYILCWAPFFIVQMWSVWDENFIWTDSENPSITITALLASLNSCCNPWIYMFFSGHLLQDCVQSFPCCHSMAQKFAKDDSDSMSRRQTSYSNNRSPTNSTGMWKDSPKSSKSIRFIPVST

Vasopressin V2 receptor = Vasopressin V2 receptor (Rattus norvegicus, UniProt Q00788)
Sequence of Vasopressin V2 receptor (Q00788 whole entry): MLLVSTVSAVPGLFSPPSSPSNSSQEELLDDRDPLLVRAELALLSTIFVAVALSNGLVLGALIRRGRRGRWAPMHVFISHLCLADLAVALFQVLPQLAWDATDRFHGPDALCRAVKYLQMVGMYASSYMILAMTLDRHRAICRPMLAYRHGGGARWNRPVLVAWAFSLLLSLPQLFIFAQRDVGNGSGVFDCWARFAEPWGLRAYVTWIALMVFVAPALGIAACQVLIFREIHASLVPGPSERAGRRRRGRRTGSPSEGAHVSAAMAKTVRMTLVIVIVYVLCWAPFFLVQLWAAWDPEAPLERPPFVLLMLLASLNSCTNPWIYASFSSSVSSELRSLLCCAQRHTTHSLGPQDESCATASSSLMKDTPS

Oxytocin receptor = molecular target: T2, Oxytocin receptor (Rattus norvegicus, UniProt P70536)
T2 sequence (P70536 whole entry): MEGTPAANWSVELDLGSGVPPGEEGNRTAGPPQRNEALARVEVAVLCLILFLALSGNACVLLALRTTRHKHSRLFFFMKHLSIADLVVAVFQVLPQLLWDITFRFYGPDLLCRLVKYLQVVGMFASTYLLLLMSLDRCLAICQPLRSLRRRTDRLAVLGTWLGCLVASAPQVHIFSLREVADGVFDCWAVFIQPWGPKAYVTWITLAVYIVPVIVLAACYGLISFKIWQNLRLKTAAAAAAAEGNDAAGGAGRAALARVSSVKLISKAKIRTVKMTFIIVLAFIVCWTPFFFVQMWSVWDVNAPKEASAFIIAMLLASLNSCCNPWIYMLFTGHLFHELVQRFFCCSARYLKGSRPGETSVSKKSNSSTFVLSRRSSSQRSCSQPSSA

`COc1ccc(C[C@@H]2NC(=O)CC3(CCCCC3)SSC[C@@H](C(=O)N3CCC[C@H]3C(=O)N[C@@H](CCCN=C(N)N)C(=O)NCC(N)=O)NC(=O)[C@H](CC(N)=O)NC(=O)[C@H](CCC(N)=O)NC(=O)[C@H](Cc3ccccc3)NC2=O)cc1` [NSC_105077] (Y(Me)FQNCPRG-NH2; linker N-5 via X1) was tested, and the pKi (Vasopressin V1b receptor) was 7.42, the pKi (Vasopressin V1a receptor) was 8.75 and 9.48 and the pKi (Vasopressin V2 receptor) was 7.40 and 7.00.
For `Cc1nc2c([nH]1)-c1ccccc1N(C(=O)c1ccc(NC(=O)c3ccccc3-c3ccccc3)cc1)CC2` [CONIVAPTAN], the pKi (Vasopressin V1b receptor) was < 5.00, the pKi (Vasopressin V1a receptor) was 9.32 and 9.62 and the pKi (Vasopressin V2 receptor) was 8.52 and 9.42. For the same compound, the pKi (Oxytocin receptor) was 7.35.
With `Cc1ccccc1C(=O)Nc1ccc(C(=O)N2CCCC(N(C)C)c3ccccc32)cc1` (stereo not given) the pKi (Vasopressin V1b receptor) was < 5.00, the pKi (Vasopressin V1a receptor) was 6.63 and the pKi (Oxytocin receptor) was 5.81.
With `NC(=O)CC[C@@H]1NC(=O)[C@H](Cc2ccccc2)NC(=O)[C@H](Cc2ccc(O)cc2)NC(=O)CCSSC[C@@H](C(=O)N2CCC[C@H]2C(=O)N[C@H](CCCN=C(N)N)C(=O)NCC(N)=O)NC(=O)[C@H](CC(N)=O)NC1=O` [NSC_64759] the pKi (Vasopressin V2 receptor) was 8.71 and 8.10.
For `CC(=O)NCCCOc1ccc(C(=O)N2CCC(N3C(=O)CCc4ccccc43)CC2)cc1` [N-(3-(4-(4-(2-oxo-3,4-dihydroquinolin-1(2H)-yl)piperidine-1-carbonyl)phenoxy)propyl)acetamide], the pKi (Vasopressin V1b receptor) was < 5.00, the pKi (Vasopressin V1a receptor) was 7.63 and 7.83 and the pKi (Vasopressin V2 receptor) was < 5.00. The pKi (Oxytocin receptor) was 6.48.
